Reference: patent publication US9210928B2, “Plant development control composition” (Syngenta Crop Protection, LLC, priority 2008, dated 2015)
“Also recorded” adds a separate entry of the source.

Target: T1, AtCCD7 (Arabidopsis thaliana, UniProt Q7XJM2)
T1 construct: expressed in transfected cells; host or cells: E. coli BL21(DE3) harbouring pAC-BETA
T1 sequence (Q7XJM2 32-618): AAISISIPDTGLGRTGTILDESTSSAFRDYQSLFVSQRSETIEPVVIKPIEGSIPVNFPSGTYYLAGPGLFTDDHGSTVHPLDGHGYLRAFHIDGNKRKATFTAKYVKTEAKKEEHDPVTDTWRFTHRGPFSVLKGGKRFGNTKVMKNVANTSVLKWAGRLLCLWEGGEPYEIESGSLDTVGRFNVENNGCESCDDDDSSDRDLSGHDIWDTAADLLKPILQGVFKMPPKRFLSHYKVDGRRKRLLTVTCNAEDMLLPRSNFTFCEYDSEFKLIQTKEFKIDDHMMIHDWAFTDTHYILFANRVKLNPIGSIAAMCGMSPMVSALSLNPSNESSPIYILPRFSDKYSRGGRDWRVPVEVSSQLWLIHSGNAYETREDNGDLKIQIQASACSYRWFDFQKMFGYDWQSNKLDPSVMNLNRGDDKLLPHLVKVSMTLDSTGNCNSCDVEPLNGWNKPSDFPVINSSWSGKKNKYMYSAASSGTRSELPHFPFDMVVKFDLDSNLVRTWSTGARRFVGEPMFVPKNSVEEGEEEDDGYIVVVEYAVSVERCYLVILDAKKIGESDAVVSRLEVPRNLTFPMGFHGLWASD
Test: In vivo enzyme assay in β-carotene-producing E. coli expressing AtCCD7
Type: cell-based
Settings: 100 μM inhibitor, 16 hours; FIG. 4
Source text: In vivo enzyme assays in E. coli—The genes of interest (supplemental Table S1) were cloned into the vector pET30c (Novagen) fused directly to the initial ATG codon with no tag, or into pGEX-4T such that the gene was fused to an N-terminal GST tag. All genes were full length except AtCCD7, which had the chloroplast signal sequence removed (supplemental methods). […] Therefore, this construct was used in subsequent assays. The plasmids were transferred to the E. coli expression strain BL21(DE3), harbouring pAC-BETA (38), and therefore producing β-carotene.
For each inhibitor assay, 2.5 ml LB media with the appropriate antibiotics (25 μg ml^−1 chloramphenicol and 50 μg ml^−1 kanamycin or 100 μg ml^−1 ampicillin) and 2.5 μM IPTG, was prepared. Inhibitors (0.1 M in 100% ethanol) were added to the media to a final concentration of 100 μM. The media was then inoculated with 0.25 ml of overnight culture (grown at 37° C. with the appropriate antibiotics) and incubated with shaking (200 rpm) at 28° C. for 16 hours. One ml of culture was harvested by microcentrifugation and resuspended thoroughly in 1 ml ethanol containing 0.2% Triton X-100. […] The supernatant was removed and the O.D.453-O.D.550 was measured. The amount of β-carotene was calculated using a standard curve generated from a dilution series of β-carotene (Sigma) in ethanol with 0.2% Triton X-100; the absolute levels of β-carotene are shown in FIG. 8. The relative inhibition was calculated by the equation: (Ci−Cc)/(C1−Cc)×100, where Ci is the carotenoid level with inhibitor and CCD present, Cc is the level with CCD but without the inhibitor and C1 is the level in a strain where lacZ is expressed instead of the CCD, and no inhibitor is present. […]
In vivo activity of inhibitors applied to E. coli strains expressing CCDs—Coloured E. coli strains that produce various carotenoids can be constructed by expression of enzymes for carotenoid synthesis (26). […] The difference in the carotenoid levels gave a measure of CCD activity, and inhibition of this activity was measured by addition of inhibitors to the growing medium. […]

| SMILES | relative inhibition of AtCCD7 in E. coli (in words) |
| --- | --- |
| COc1ccc(C(=O)N(O)Cc2ccc(F)cc2)cc1 [Compound F2, N-(4-fluorobenzyl)-4-methoxybenzoyl hydroxamic acid] | poor inhibition; also recorded: relatively small activity; also recorded: relatively ineffective against AtCCD7; also recorded: poor inhibitors against AtCCD7 |
| COc1ccc(C(=O)N(O)Cc2ccccc2)cc1 [Compound F1, N-benzyl-4-methoxybenzoyl hydroxamic acid] | poor inhibition; also recorded: relatively small activity; also recorded: relatively ineffective against AtCCD7; also recorded: poor inhibitors against AtCCD7 |
| COc1ccc(C(=O)N(O)Cc2ccccc2)cc1OC [Compound F3, N-benzyl-3,4-dimethoxybenzoyl hydroxamic acid] | inactive |
